The text below walks through data of patent US20250145665A1, “MACROCYCLIC PEPTIDES USEFUL AS MODULATORS OF TNF ALPHA” (Bristol-Myers Squibb Company, priority 2023, published 2025).

Positions of bridges follow the written chain, without caps; N, C: chain ends. Non-standard residues stand in square brackets, D forms with d. Residues, ends and D or L forms follow the SMILES beside them. Bip(4'-NHAc) = CC(=O)Nc1ccc(-c2ccc(C[C@H](N)C(=O)O)cc2)cc1; Phe(4-(4-pyridyl)) = N[C@@H](Cc1ccc(-c2ccncc2)cc1)C(=O)O; Phe(4-(3-Py)) = N[C@@H](Cc1ccc(-c2cccnc2)cc1)C(=O)O; Ala(morpholin-4-yl) = N[C@@H](CN1CCOCC1)C(=O)O; Bip = N[C@@H](Cc1ccc(-c2ccccc2)cc1)C(=O)O; Hyp = O=C(O)[C@@H]1C[C@@H](O)CN1; 4Pal = N[C@@H](Cc1ccncc1)C(=O)O; Tic = O=C(O)[C@@H]1Cc2ccccc2CN1; Aze = O=C(O)[C@@H]1CCN1; Sar = CNCC(=O)O

Chain of TNFα (P01375 77-233 limits assumed): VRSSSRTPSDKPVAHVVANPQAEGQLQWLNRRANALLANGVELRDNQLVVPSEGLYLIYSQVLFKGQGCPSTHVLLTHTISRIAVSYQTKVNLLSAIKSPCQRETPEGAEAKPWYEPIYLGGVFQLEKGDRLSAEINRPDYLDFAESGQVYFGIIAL

The assay addresses TNFα (Homo sapiens, UniProt P01375). The assay can be described thus: TNF-Induced HEK-Blue Assay. The settings on record: HEK-Blue-CD40L cells, NF-kB-driven secreted alkaline phosphatase reporter; TNFα 0.5 ng/ml; 18 h; read-out: TNF induced HEK-Blue assay IC50 value. It counts as cell-based.
As a reminder, the IC50 is the concentration needed to halve the response being measured. Take `CC(C)C[C@@H]1NC(=O)[C@H](Cc2ccc(O)cc2)NC(=O)[C@H](C(C)C)NC(=O)[C@@H]2C[C@@H](O)CN2C(=O)[C@H](C(C)C)NC(=O)[C@H](CCCNC(=N)N)NC(=O)[C@H](CC(=O)O)NC(=O)[C@H](Cc2ccc(O)cc2)NC(=O)CN(C)C(=O)[C@H](Cc2ccc(-c3ccccc3)cc2)NC(=O)[C@H](Cc2ccc(-c3ccccc3)cc2)NC(=O)[C@H](CN2CCOCC2)NC(=O)CSC[C@@H](C(=O)NCC(N)=O)NC1=O` [Example 73] ({CH2CO}-[Ala(morpholin-4-yl)][Bip][Bip][Sar]YDRV[Hyp]VYLCG-NH2; thioether N-13): the IC50 lay within 200 to 2000 nM.

Take `CC(C)C[C@@H]1NC(=O)[C@H](Cc2ccc(O)cc2)NC(=O)[C@H](C(C)C)NC(=O)[C@@H]2Cc3ccccc3CN2C(=O)[C@H](C(C)C)NC(=O)[C@H](CCCNC(=N)N)NC(=O)[C@H](CC(=O)O)NC(=O)[C@H](Cc2ccc(O)cc2)NC(=O)CN(C)C(=O)[C@H](Cc2ccc(-c3ccccc3)cc2)NC(=O)[C@H](Cc2ccc(-c3ccccc3)cc2)NC(=O)[C@H](CN2CCOCC2)NC(=O)CSC[C@@H](C(=O)NCC(N)=O)NC1=O` [Example 74] ({CH2CO}-[Ala(morpholin-4-yl)][Bip][Bip][Sar]YDRV[Tic]VYLCG-NH2; thioether N-13): the IC50 was 200 to 2000 nM.

`CC(C)C[C@@H]1NC(=O)[C@H](Cc2ccc(O)cc2)NC(=O)[C@H](C(C)C)NC(=O)[C@@H]2CCN2C(=O)[C@H](C(C)C)NC(=O)[C@H](CCCNC(=N)N)NC(=O)[C@H](CC(=O)O)NC(=O)[C@H](Cc2ccc(O)cc2)NC(=O)CN(C)C(=O)[C@H](Cc2ccc(-c3ccccc3)cc2)NC(=O)[C@H](Cc2ccc(-c3ccccc3)cc2)NC(=O)[C@H](CN2CCOCC2)NC(=O)CSC[C@@H](C(=O)NCC(N)=O)NC1=O` [Example 75] ({CH2CO}-[Ala(morpholin-4-yl)][Bip][Bip][Sar]YDRV[Aze]VYLCG-NH2; thioether N-13): the IC50 fell in the range of 200 to 2000 nM.

With `CC(C)C[C@@H]1NC(=O)[C@H](CCCNC(=N)N)NC(=O)[C@H](C(C)C)NC(=O)[C@@H]2CCCN2C(=O)[C@H](C(C)C)NC(=O)[C@@H](CCCNC(=N)N)NC(=O)[C@H](CC(=O)O)NC(=O)[C@H](Cc2ccc(O)cc2)NC(=O)CN(C)C(=O)[C@H](Cc2ccc(-c3ccccc3)cc2)NC(=O)[C@H](Cc2ccc(-c3ccccc3)cc2)NC(=O)[C@H](CN2CCOCC2)NC(=O)CSC[C@@H](C(=O)NCC(N)=O)NC1=O` [Example 76] ({CH2CO}-[Ala(morpholin-4-yl)][Bip][Bip][Sar]YD[dR]VPVRLCG-NH2; thioether N-13), the IC50 is less than 50 nM.

Take `CC(C)C[C@@H]1NC(=O)[C@H](Cc2ccc(O)cc2)NC(=O)[C@H](C(C)C)NC(=O)[C@@H]2CCCN2C(=O)[C@H](C(C)C)NC(=O)[C@@H](CCCNC(=N)N)NC(=O)[C@H](CC(=O)O)NC(=O)[C@@H]2CCCN2C(=O)CN(C)C(=O)[C@H](Cc2ccc(-c3ccccc3)cc2)NC(=O)[C@H](Cc2ccc(-c3ccccc3)cc2)NC(=O)[C@H](CN2CCOCC2)NC(=O)CSC[C@@H](C(=O)NCC(N)=O)NC1=O` [Example 77] ({CH2CO}-[Ala(morpholin-4-yl)][Bip][Bip][Sar]PD[dR]VPVYLCG-NH2; thioether N-13): the IC50 fell in the range of 200 to 2000 nM.

Take `CC(C)C[C@@H]1NC(=O)[C@H](Cc2ccc(O)cc2)NC(=O)[C@H](C(C)C)NC(=O)[C@@H]2C[C@@H](O)CN2C(=O)[C@H](C(C)C)NC(=O)[C@@H](CCCNC(=N)N)NC(=O)[C@H](CC(=O)O)NC(=O)[C@H](Cc2ccc(O)cc2)NC(=O)CN(C)C(=O)[C@H](Cc2ccc(-c3ccccc3)cc2)NC(=O)[C@H](Cc2ccc(-c3ccccc3)cc2)NC(=O)[C@H](CN2CCOCC2)NC(=O)CSC[C@@H](C(=O)NCC(N)=O)NC1=O` [Example 78] ({CH2CO}-[Ala(morpholin-4-yl)][Bip][Bip][Sar]YD[dR]V[Hyp]VYLCG-NH2; thioether N-13): the half-inhibitory concentration (IC50) was in the range of 50 to 200 nM.

As to `CC(C)C[C@@H]1NC(=O)[C@H](Cc2ccc(O)cc2)NC(=O)[C@H](C(C)C)NC(=O)[C@@H]2CCN2C(=O)[C@H](C(C)C)NC(=O)[C@@H](CCCNC(=N)N)NC(=O)[C@H](CC(=O)O)NC(=O)[C@H](Cc2ccc(O)cc2)NC(=O)CN(C)C(=O)[C@H](Cc2ccc(-c3ccccc3)cc2)NC(=O)[C@H](Cc2ccc(-c3ccccc3)cc2)NC(=O)[C@H](CN2CCOCC2)NC(=O)CSC[C@@H](C(=O)NCC(N)=O)NC1=O` [Example 79] ({CH2CO}-[Ala(morpholin-4-yl)][Bip][Bip][Sar]YD[dR]V[Aze]VYLCG-NH2; thioether N-13), the IC50 was less than 50 nM.

With `CC(C)C[C@@H]1NC(=O)[C@H](Cc2ccc(O)cc2)NC(=O)[C@H](C(C)C)NC(=O)[C@@H]2C[C@@H](O)CN2C(=O)[C@H](C(C)C)NC(=O)[C@@H](CCCNC(=N)N)NC(=O)[C@H](CC(=O)O)NC(=O)[C@@H]2CCCN2C(=O)CN(C)C(=O)[C@H](Cc2ccc(-c3ccccc3)cc2)NC(=O)[C@H](Cc2ccc(-c3ccccc3)cc2)NC(=O)[C@H](CN2CCOCC2)NC(=O)CSC[C@@H](C(=O)NCC(N)=O)NC1=O` [Example 80] ({CH2CO}-[Ala(morpholin-4-yl)][Bip][Bip][Sar]PD[dR]V[Hyp]VYLCG-NH2; thioether N-13), the IC50 was in the range of 200 to 2000 nM.

Take `CC(C)C[C@@H]1NC(=O)[C@H](Cc2ccc(O)cc2)NC(=O)[C@H](C(C)C)NC(=O)[C@@H]2Cc3ccccc3CN2C(=O)[C@H](C(C)C)NC(=O)[C@@H](CCCNC(=N)N)NC(=O)[C@H](CC(=O)O)NC(=O)[C@@H]2CCCN2C(=O)CN(C)C(=O)[C@H](Cc2ccc(-c3ccccc3)cc2)NC(=O)[C@H](Cc2ccc(-c3ccccc3)cc2)NC(=O)[C@H](CN2CCOCC2)NC(=O)CSC[C@@H](C(=O)NCC(N)=O)NC1=O` [Example 81] ({CH2CO}-[Ala(morpholin-4-yl)][Bip][Bip][Sar]PD[dR]V[Tic]VYLCG-NH2; thioether N-13): the IC50 lay within 50 to 200 nM.

On to `CC(C)C[C@@H]1NC(=O)[C@H](Cc2ccc(O)cc2)NC(=O)[C@H](C(C)C)NC(=O)[C@@H]2CCN2C(=O)[C@H](C(C)C)NC(=O)[C@@H](CCCNC(=N)N)NC(=O)[C@H](CC(=O)O)NC(=O)[C@@H]2CCCN2C(=O)CN(C)C(=O)[C@H](Cc2ccc(-c3ccccc3)cc2)NC(=O)[C@H](Cc2ccc(-c3ccccc3)cc2)NC(=O)[C@H](CN2CCOCC2)NC(=O)CSC[C@@H](C(=O)NCC(N)=O)NC1=O` [Example 82] ({CH2CO}-[Ala(morpholin-4-yl)][Bip][Bip][Sar]PD[dR]V[Aze]VYLCG-NH2; thioether N-13), for which the IC50 lay within 200 to 2000 nM.

On to `CC(C)C[C@@H]1NC(=O)[C@H](Cc2ccc(O)cc2)NC(=O)[C@H](C(C)C)NC(=O)[C@@H]2CCCN2C(=O)[C@H](CC(N)=O)NC(=O)[C@H](CCCNC(=N)N)NC(=O)[C@H](CC(=O)O)NC(=O)[C@H](Cc2ccc(O)cc2)NC(=O)CN(C)C(=O)[C@H](Cc2ccc(-c3ccccc3)cc2)NC(=O)[C@H](Cc2ccc(-c3ccccc3)cc2)NC(=O)[C@H](CN2CCOCC2)NC(=O)CSC[C@@H](C(=O)NCC(N)=O)NC1=O` [Example 83] ({CH2CO}-[Ala(morpholin-4-yl)][Bip][Bip][Sar]YDRNPVYLCG-NH2; thioether N-13), for which the 50% inhibitory concentration (IC50) lay in the range of 50 to 200 nM.

As to `CC(=O)Nc1ccc(-c2ccc(C[C@@H]3NC(=O)[C@H](CN4CCOCC4)NC(=O)CSC[C@@H](C(=O)NCC(N)=O)NC(=O)[C@H](C(C)C)NC(=O)[C@H](CCCNC(=N)N)NC(=O)[C@H](C(C)C)NC(=O)[C@@H]4CCCN4C(=O)[C@H](C(C)C)NC(=O)[C@@H](CCCNC(=N)N)NC(=O)[C@H](CC(=O)O)NC(=O)[C@@H]4CCCN4C(=O)CN(C)C(=O)[C@H](Cc4ccc(-c5ccccc5)cc4)NC3=O)cc2)cc1` [Example 85] ({CH2CO}-[Ala(morpholin-4-yl)][Bip(4'-NHAc)][Bip][Sar]PD[dR]VPVRVCG-NH2; thioether N-13), the IC50 was in the range of 200 to 2000 nM.

`CC(C)[C@@H]1NC(=O)[C@H](CCCNC(=N)N)NC(=O)[C@H](C(C)C)NC(=O)[C@@H]2CCCN2C(=O)[C@H](C(C)C)NC(=O)[C@H](CCCNC(=N)N)NC(=O)[C@H](CC(=O)O)NC(=O)[C@@H]2CCCN2C(=O)CN(C)C(=O)[C@H](Cc2ccc(-c3ccccc3)cc2)NC(=O)[C@H](Cc2ccncc2)NC(=O)[C@H](CN2CCOCC2)NC(=O)CSC[C@@H](C(=O)NCC(N)=O)NC1=O` [Example 86] ({CH2CO}-[Ala(morpholin-4-yl)][4Pal][Bip][Sar]PDRVPVRVCG-NH2; thioether N-13): the half-inhibitory concentration (IC50) fell in the range of 50 to 200 nM.

`CC(C)[C@@H]1NC(=O)[C@H](CCCNC(=N)N)NC(=O)[C@H](C(C)C)NC(=O)[C@@H]2CCCN2C(=O)[C@H](C(C)C)NC(=O)[C@H](CCCNC(=N)N)NC(=O)[C@H](CC(=O)O)NC(=O)[C@@H]2CCCN2C(=O)CN(C)C(=O)[C@H](Cc2ccc(-c3ccccc3)cc2)NC(=O)[C@H](Cc2ccc(-c3ccncc3)cc2)NC(=O)[C@H](CN2CCOCC2)NC(=O)CSC[C@@H](C(=O)NCC(N)=O)NC1=O` [Example 87] ({CH2CO}-[Ala(morpholin-4-yl)][Phe(4-(4-pyridyl))][Bip][Sar]PDRVPVRVCG-NH2; thioether N-13): the IC50 was 50 to 200 nM.

For `CC(C)[C@@H]1NC(=O)[C@H](CCCNC(=N)N)NC(=O)[C@H](C(C)C)NC(=O)[C@@H]2CCCN2C(=O)[C@H](C(C)C)NC(=O)[C@H](CCCNC(=N)N)NC(=O)[C@H](CC(=O)O)NC(=O)[C@@H]2CCCN2C(=O)CN(C)C(=O)[C@H](Cc2ccc(-c3ccccc3)cc2)NC(=O)[C@H](Cc2ccc(-c3cccnc3)cc2)NC(=O)[C@H](CN2CCOCC2)NC(=O)CSC[C@@H](C(=O)NCC(N)=O)NC1=O` [Example 88] ({CH2CO}-[Ala(morpholin-4-yl)][Phe(4-(3-Py))][Bip][Sar]PDRVPVRVCG-NH2; thioether N-13), the 50% inhibitory concentration (IC50) lay in the range of 200 to 2000 nM.

Consider `CC(=O)Nc1ccc(-c2ccc(C[C@@H]3NC(=O)[C@H](Cc4ccc(-c5ccccc5)cc4)NC(=O)[C@H](CN4CCOCC4)NC(=O)CSC[C@@H](C(=O)NCC(N)=O)NC(=O)[C@H](C(C)C)NC(=O)[C@H](CCCNC(=N)N)NC(=O)[C@H](C(C)C)NC(=O)[C@@H]4CCCN4C(=O)[C@H](C(C)C)NC(=O)[C@H](CCCNC(=N)N)NC(=O)[C@H](CC(=O)O)NC(=O)[C@@H]4CCCN4C(=O)CN(C)C3=O)cc2)cc1` [Example 89] ({CH2CO}-[Ala(morpholin-4-yl)][Bip][Bip(4'-NHAc)][Sar]PDRVPVRVCG-NH2; thioether N-13), for which the IC50 was in the range of 50 to 200 nM.
